Laboratory results taken from the OPERA property sets (Mansouri et al. 2018).
Peptide text beside a SMILES is read from it.

| Structure (SMILES) | logP |
| --- | --- |
| O=c1cccc[nH]1 | -0.58 |
| CCCCCCCOc1cccc(NC(=O)OCCN2CCCCC2)c1 | 5.53 |
| CNC(=S)NNc1ccccc1 | 1.17 |
| NC(=O)Cc1ccncc1 | -0.65 |
| CSc1ccc2ccccc2n1 | 3.04 |
| CCN(C(=O)SCc1ccccc1)C(C)C(C)C (stereo not drawn) | 4.6 |
| OCCn1nnc2ccccc21 | 0.5 |
| Nc1nncc2ccccc12 | 0.82 |
| c1ccc(C2CNCCO2)cc1 (stereo not drawn) | 1.11 |
| Cn1ccc2ccccc21 | 2.72 |
| CCCCNc1nc(NC(C)C)nc(SC(F)F)n1 | 4.75 |
| CCOC(=O)C(=Cc1cccc(C)c1)C(=O)OCC | 3.55 |
| O=C(O)Cc1ccccc1Nc1c(Cl)cc(O)cc1Cl | 3.7 |
| Nc1ccc(C(=O)O)c(F)c1 | 1.29 |
| O=[N+]([O-])c1cnc2ccccc2c1 | 1.97 |
| O=C(OC(=O)c1ccccc1)c1ccccc1 | 2.26 |
| Nc1ccc2nc3ccccc3cc2c1 | 2.62 |
| Clc1ccc(-c2ccccc2Cl)c(Cl)c1 | 5.76 |
| CCCCCCCOc1ccc(NC(=O)OCCN2CCCCC2)cc1 | 5.87 |
| CC(C)c1ccccc1OC(=O)N(C)C | 2.65 |
| CN1CC[C@]23CCCC[C@H]2[C@H]1Cc1ccc(O)cc13 | 3.11 |
| CCC(C)n1c(=O)[nH]c(C)c(Br)c1=O (stereo not drawn) | 2.11 |
| OCC(O)COc1ccccc1 (stereo not drawn) | 0.7 |
| CC(=O)C(=Cc1ccccc1Cl)C(C)=O | 2.19 |

| Structure (SMILES) | logP |
| --- | --- |
| COC(=O)C(C)N(C(=O)Cc1ccccc1)c1c(C)cccc1C (stereo not drawn) | 3.4 |
| Nc1nc(N)nc(-c2cccc(F)c2)n1 | 1.73 |
| CNC(=O)COc1ccccc1 | 1.02 |
| COC(=O)c1cc(Cl)ccc1N | 3.3 |
| CCOc1ccccc1S(I)=C(N(C)C)N(C)C (stereo not drawn) | -0.06 |
| CC(=O)Oc1cccc([N+](=O)[O-])c1 | 1.82 |
| CNC(=O)ON=C(SC)C(=O)N(C)C | -0.47 |
| CC(=O)Nc1ccc(C=O)cc1 | 1.25 |
| CC=CC (mixture of isomers) | 2.33 |
| CNC(=O)Nc1ccc(OC)c(Cl)c1 | 1.76 |
| CCOC(=O)CC(SP(=S)(OC)OC)C(=O)OCC (stereo not drawn) | 2.36 |
| O=C1C=CC(=O)c2c(O)cccc21 | 1.92 |
| CCCNC(=O)NO | -0.22 |
| CC(=O)Oc1cccc(O)c1 | 1.23 |
| CC1(O)CCC2C3CCC4=CC(=O)CCC4(C)C3(F)C(O)CC21C (stereo not drawn) | 2.38 |
| O=C(O)CCC(Nc1ccc(Br)cc1)C(=O)O (stereo not drawn) | 1.12 |
| Cc1ccc(COC(=O)N(C)C)cc1 | 2.63 |
| CC(=O)c1cccc(C(=O)O)c1 | 1.56 |
| O=C(O)COc1ccc(Cl)c(I)c1 | 3.1 |
| COCC(c1c(O)c2ccccc2oc1=O)c1c(O)c2ccccc2oc1=O | 1.38 |
| COc1cccc2c1C(=N)c1c(O)c3c(c(O)c1C2=O)CC(O)(C(=O)CO)CC3OC1CC(N2CCOCC2C#N)C(O)C(C)O1 (stereo not drawn) | 1.97 |
| CNC(C)=O | -1.05 |
| c1ccc(NC2=NCCN2)cc1 | 1.01 |
| CC1CC2C3CC(F)C4=CC(=O)C(Cl)=CC4(C)C3(F)C(O)CC2(C)C1(O)C(=O)CO (stereo not drawn) | 2.58 |

| Structure (SMILES) | logP |
| --- | --- |
| COc1ccc(C=CC(=O)O)cc1OC | 2.34 |
| Fc1ccc(CCl)cc1 | 2.73 |
| CCOC(=O)C(=Cc1c(Cl)cccc1Cl)C(C)=O | 2.86 |
| CS(=O)(=O)Oc1ccccc1 | 1.25 |
| CCCCOC(=O)CNC(=O)CCCCSc1[nH]cnc2ncnc1-2 | 1.39 |
| O=Cc1cccs1 | 1.02 |
| c1ccc(C23CCN(CC2)CC3)cc1 | 2.54 |
| CCC(C)C(NC(=O)C(CCC(=O)O)NC(C)=O)C(=O)NC(Cc1ccccc1)C(N)=O (stereo not drawn) (Ac-Glu-Ile-Phe-NH2; configuration not given here) | 0.43 |
| CNC(=O)Oc1cccc(Cl)c1 | 2.03 |
| Cc1[nH]ccc(=O)c1O | -0.49 |
| NS(=O)(=O)c1cc2c(cc1Cl)NC(CC1CCCC1)NS2(=O)=O (stereo not drawn) | 1.27 |
| COCC(F)Cn1ccnc1[N+](=O)[O-] (stereo not drawn) | 0.18 |
| COP(=S)(OC)Oc1ccc([N+](=O)[O-])c(C(C)C)c1 | 4.05 |
| CCN(CC)N=Nc1ccc(S(C)(=O)=O)cc1 | 2.6 |
| Nc1nccc(=O)[nH]1 | -0.99 |
| c1ccc(COCc2ccccc2)cc1 | 3.31 |
| C/C(=N/Nc1nc(C)cc(C)n1)c1ccccc1C | 2.98 |
| COc1ccc(CCN)cc1OC | 0.77 |
| O=C(O)c1ccc([N+](=O)[O-])cc1 | 1.89 |
| CC1(C)N=C(N)N=C(N)N1c1ccc(F)cc1 | 0.37 |
| NCCN1CCCC1 | 0.08 |
| COc1ccc(COC(=O)N(C)C)cc1 | 2.2 |
| NNC(=O)c1cccc([N+](=O)[O-])c1 | 0.23 |
| CC(Cl)C(=O)NC(CO)C(O)c1ccc([N+](=O)[O-])cc1 (stereo not drawn) | 0.98 |

| Structure (SMILES) | logP |
| --- | --- |
| O=Cc1ccccc1Cl | 2.33 |
| CC(C)(Oc1ccc(Cl)cc1)C(=O)O | 2.57 |
| CCO[Si](OCC)(c1ccccc1)c1ccccc1 | 4.92 |
| Clc1ccc(Cl)cc1 | 3.44 |
| CON=C(C(=O)NC1C(=O)N2C(C(=O)OC(C)OC(C)=O)=C(COC(N)=O)CSC12)c1ccco1 (stereo not drawn) | 0.89 |
| CC(=O)OC1CC(OC2C(O)CC(OC3C(C)OC(OC4CCC5(C)C(CCC6C5CC(O)C5(C)C(C7=CC(=O)OC7)CCC65O)C4)CC3OC(C)=O)OC2C)OC(C)C1O (stereo not drawn) | 2.45 |
| CCOc1cccc(S(I)=C(N(C)C)N(C)C)c1 (stereo not drawn) | -0.1 |
| N#Cc1cccc(O)c1 | 1.7 |
| O=CNc1ccccc1 | 1.15 |
| CN(C)C(=O)c1cccnc1 | -0.48 |
| CCN(C)C | 0.7 |
| CCOC(=O)C(=O)Nc1ccccc1 | 1.48 |
| O=[N+]([O-])c1ccc(OC2OC(CO)C(O)C(O)C2O)cc1 (stereo not drawn) | -0.44 |
| COc1ccccc1O | 1.32 |
| CCN(CC)CCNC(=O)c1ccccc1OC | 1.98 |
| Nc1nc(C=Cc2ccc([N+](=O)[O-])o2)no1 | 1.3 |
| CC=CC=CC (mixture of isomers) | 2.8 |
| O=C(O)Cc1ccc(F)cc1 | 1.55 |
| NC(=O)c1ccccc1O | 1.28 |
| O=C(O)c1c[nH]c2ccccc12 | 1.99 |
| Cc1cccc2nccnc12 | 2.04 |
| Cc1ccccc1OCC(O)CO (stereo not drawn) | 1.41 |
| COc1cc(CCN)cc(OC)c1OC(C)C | 1.52 |

| Structure (SMILES) | logP |
| --- | --- |
| C=CCCC=C | 2.87 |
| CCC(Br)(CC)C(=O)NC(N)=O | 1.54 |
| ON=C1C=CC(=NO)C=C1 | 1.49 |
| O=C(NCCO)C(F)(F)Cn1ccnc1[N+](=O)[O-] | -0.52 |
| CCOP(=S)(OCC)Oc1ccc(S(C)=O)cc1 (stereo not drawn) | 2.23 |
| COCCN(CCOC)N=O | -0.38 |
| CCCCc1cccc(NC(=O)N(C)C)c1 | 3.23 |
| Cc1ncc([N+](=O)[O-])n1CCS(=O)(=O)C(C)C | 0.13 |
| Nc1nc(N)nc(-c2cccc([N+](=O)[O-])c2)n1 | 1.57 |
| O=[N+]([O-])c1cc(Cl)ccc1Cl | 3.09 |
| O=C(c1ccccc1)c1ccc(O)cc1 | 3.07 |
| CC(=O)NC(=O)NC(C)=O | -0.68 |
| NNC(=O)c1ccc(I)cc1 | 1.55 |
| CS(=O)(=O)c1ccc(Cl)cc1 | 1.06 |
| CC(=O)CCC1CC1 | 1.5 |
| CCc1cccc(OC(=O)NC)c1 | 2.2 |
| CC(C)(C)C(=O)c1ccccc1 | 3 |
| Cc1cc(=O)cc(C)o1 | 0.1 |
| COCCNC(=S)C(F)(F)Cn1cnc([N+](=O)[O-])n1 | 0.66 |
| O=C1CCN(c2ccccc2)N1 | 0.89 |
| c1ccc2[se]ccc2c1 | 3.19 |
| CN(CC(C)(C)C)N=O | 1.34 |
| CN(C)c1cccc2c(S(N)(=O)=O)cccc12 | 2.01 |
| NNP(=O)(Oc1ccccc1)Oc1ccccc1 | 1.51 |

| Structure (SMILES) | logP |
| --- | --- |
| O=CNc1ccc2[nH]ccc2c1 | 1.07 |
| COC(=O)CCCC(=O)OC | 0.62 |
| CCSCC | 1.95 |
| CN(C)C(=O)OCc1ccc(F)cc1 | 2.3 |
| CC1OC(OC2C(O)CC(OC3C(O)CC(OC4CCC5(C)C(CCC6C5CC(O)C5(C)C(C7=CC(=O)OC7)CCC65O)C4)OC3C)OC2C)CC(OC(=O)C2OC(O)CC(O)C2O)C1O (stereo not drawn) | -1.77 |
| CC(=O)Cc1ccccc1 | 1.44 |
| CCNC(=O)c1ccc(S(N)(=O)=O)cc1 | 0.03 |
| CC(=O)N[C@@H](Cc1ccccc1)C(=O)NCC(N)=O (Ac-Phe-Gly-NH2) | -0.5 |
| CCN(CC)CCNC(=O)c1ccc(N)cc1 | 0.88 |
| CCCc1ccncc1 | 2.1 |
| Cn1cccn1 | 0.23 |
| O[C@@H]1CCCC[C@H]1O | 0.08 |
| CCCCSC#N | 2.03 |
| Nc1ccc(S(=O)(=O)Nc2ccccc2)cc1 | 1.55 |
| CCN(CC)CCOC(=O)C=Cc1ccc(OC)cc1 | 3.55 |
| OCCOc1c(Br)cc(Br)cc1Br | 3.42 |
| c1ccc2cnccc2c1 | 2.08 |
| CNC(=O)Oc1ccc2ccccc2c1 | 2.56 |
| CCC(=O)OC1(c2ccccc2)CC(C)N(C)CC1C (stereo not drawn) | 3.13 |
| NCCCCc1ccccc1 | 2.4 |
| C=C=C | 1.45 |
| O=C(OCCOCCO)c1ccccc1 | 1.16 |
| Nc1nc2ccccc2[nH]1 | 0.91 |
| O=NN1CC=CC1 | 0.26 |

| Structure (SMILES) | logP |
| --- | --- |
| Cc1ccc(S(I)=C(N(C)C)N(C)C)c([N+](=O)[O-])c1 (stereo not drawn) | 0.23 |
| O=[N+]([O-])c1ccc(-c2ccccc2)cc1 | 3.82 |
| [O-][n+]1cccc(O)c1 | -0.61 |
| O=C(O)c1ccccc1O | 2.26 |
| O=C(O)COc1ccccc1Br | 2.04 |
| Brc1ccncc1 | 1.54 |
| CCCCCCCCCCNC(=O)c1[nH]nc(C)c1[N+](=O)[O-] | 4.48 |
| O=[N+]([O-])Cc1ccccc1 | 1.75 |
| ICI | 2.3 |
| C=CCN1CC[C@]23CCCC[C@H]2[C@H]1Cc1ccc(O)cc13 | 3.48 |
| CC(C)(C)C(N)Cc1ccccc1 (stereo not drawn) | 2.91 |
| CCOc1cccc(C(=O)NP(=O)(N2CC2)N2CC2)c1 | 1.24 |
| O=C(c1ccccc1)c1ccc(NS(=O)(=O)C(F)(F)F)cc1 | 4.28 |
| CCn1cnc2c(NC(C)=O)ncnc21 | -0.41 |
| COc1ccc(I)cc1Cc1cnc(N)nc1N | 2.7 |
| Clc1c(Cl)c(Cl)c2n[nH]nc2c1Cl | 4.17 |
| CCCCCC(C)=O | 1.98 |
| NC(=O)Cc1ccccn1 | -0.65 |
| COc1cc2c(c(OC)c1OC)-c1ccc(O)c(=O)cc1[C@@H](NC(=O)C(F)(F)F)CC2 | 1.82 |
